Test [1] addresses T1, thromboxane A2 (TxA2) receptor (Cavia porcellus, UniProt A0A286Y4I8).
T1 construct: to obtain washed platelets; from tissue; host or cells: washed platelets of male Hartley guinea pigs
T1 sequence (A0A286Y4I8 1-347): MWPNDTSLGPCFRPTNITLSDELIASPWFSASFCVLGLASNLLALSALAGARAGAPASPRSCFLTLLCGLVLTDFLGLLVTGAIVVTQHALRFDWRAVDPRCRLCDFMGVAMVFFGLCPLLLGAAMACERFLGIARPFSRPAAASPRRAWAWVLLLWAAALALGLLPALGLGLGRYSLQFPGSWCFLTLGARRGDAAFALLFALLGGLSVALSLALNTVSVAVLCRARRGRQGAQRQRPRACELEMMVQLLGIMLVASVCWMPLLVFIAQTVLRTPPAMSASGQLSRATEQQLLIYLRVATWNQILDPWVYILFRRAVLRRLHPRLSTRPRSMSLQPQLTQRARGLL
The experiment in a line: TxA2 antagonist action by binding assay. To be noted: washed guinea pig platelets, 1 nM [3H]-SQ29,548, 45 minutes at 25° C. Here is the method:
(1) TxA2 antagonist action by binding assay Guinea pigs (Hartley; male; body weight=approximately 500 g) were anesthetized with ether, and the blood was collected into sodium citrate (final concentration=0.38%). The preparation of platelets was carried out at room temperature. The platelet rich plasma was obtained by centrifugation at 980 rpm for 10 minutes. One tenth (1/10) amount of 77 mM-EDTA-Na (pH 7.4) was added to the platelet rich plasma, and the mixture was centrifuged for 10 minutes at 3000 rpm. The suspension was again centrifuged at 3000 rpm for 10 minutes. The precipitate was further resuspended in a suspension buffer (2) shown in Table 2 to obtain washed platelets. The number of platelets was counted by an automatic blood cell counter (Sysmex Microcellcounter F-800) and the sample was diluted with the suspension buffer to 4×10^8 cells/ml. The platelets, sample solution and labeled compounds were placed into plastic tubes in amounts (volumes) shown in the following Table 3, incubated for 45 minutes at 25° C., and then the mixture was filtered using a cell harvester (Brandel cell harvester M-24R) by a glass fiber filter (Whatman GF/B). After the filter was sufficiently dried, the scintillation was counted by a scintillation counter (Beckman LS5000TD). IC50 was calculated from (binding)/(control binding) ratio in the presence of an antagonist. [table 3: the next 10 blocks are its lines as printed, fixed-width]

The next test concerns rat platelet. The experiment in a line: Inhibitory activity of aggregation in rat platelet. To be noted: rat platelet rich plasma, arachidonic acid (final concentration 0.5 mM) as inducer; read-out: C: Inhibitory activity of aggregation in rat platelet (IC50; μM). In kind it is cell-based. Here is the method:
(3) Inhibitory Activity of Aggregation in Rat Platelet The abdomen of etherized rat was open, and blood was taken from the abdominal arteries, using a sodium citrate solution (final concentration was 0.38%). The blood was centrifuged at 1100 rpm for 10 minutes, and the supernatent was separated as the platelet rich plasma. The plasma was further centrifuged at 2000 rpm for 15 minutes to obtain the supernatent as a platelet poor plasma. The platelet rich plasma (280 μl) was placed in a measuring cuvette and preincubated for 1 minute at 37° C. Then, a sample solution (10 μl) was added. After 2 minutes, an arachidonic acid solution (final concentration=0.5 mM) (10 μl) was added as an inducer. The change in light transmission was recorded for 5 minutes.

Where a name gives a salt, the structure may show the parent alone.

Consider `COc1ccc(S(=O)(=O)NC(COC2CCCCO2)C(=O)Nc2ccc(CC(=O)O)cc2)cc1` (racemic) [Example 57, (RS)-N-(4-(carboxymethyl)phenyl)-2-(4-methoxybenzenesulfonylamino)-3-(tetrahydropyran-2-yloxy)propanamide], for which the IC50 came out at 0.15 µM in test [1] and 0.53 µM in the test with rat platelet.
For the compound `O=C(O)Cc1ccc(NC(=O)C(COC2CCCCO2)NS(=O)(=O)c2ccc(Cl)c([N+](=O)[O-])c2)cc1` (racemic) [Example 58, (RS)-N-(4-(carboxymethyl)phenyl)-2-(4-chloro-3-nitrobenzenesulfonylamino)-3-(tetrahydropyran-2-yloxy)propanamide], the IC50 in test [1] was 1.4 µM; in the test on rat platelet, 5.3 µM.
Take `O=C(O)Cc1ccc(NC(=O)C(COC2CCCCO2)NS(=O)(=O)c2ccc3ccccc3c2)cc1` (racemic) [Example 60, (RS)-N-(4-(carboxymethyl)phenyl)-N-(4-(carboxymethyl)phenyl)-2-(2-naphthalenesulfonylamino)-3-(tetrahydropyran-2-yloxy)propanamide]: the IC50 in test [1] came out at 0.23 µM; with rat platelet, 5.3 µM.
With `O=C(O)Cc1ccc(NC(=O)C(Cn2ccnc2)NS(=O)(=O)c2ccc(Cl)cc2)cc1` (racemic) [Example 94, (RS)-N-(4-(carboxymethyl)phenyl)-2-(4-chlorobenzenesulfonylamino)-3-(1H-imidazol-1-yl)propanamide hydrochloride], the IC50 in test [1] was determined as 0.86 µM; in the test on rat platelet, 1.7 µM.
`O=C(O)CCc1ccc(NC(=O)C(Cn2ccnc2)NS(=O)(=O)c2ccc(Cl)cc2)cc1` (racemic) [Example 95, (RS)-N-(4-(2-carboxyethyl)phenyl)-2-(4-chlorobenzenesulfonylamino)-3-(1H-imidazol-1-yl)propanamide hydrochloride]: the IC50 in test [1] is 1.5 µM; in the test with rat platelet, 1.79 µM.
Take `O=C(O)CCCCCCNC(=O)C(Cn1ccnc1)NS(=O)(=O)c1ccc(Cl)cc1` (racemic) [Example 101, (RS)-N-(6-carboxyhexyl)-2-(4-chlorobenzenesulfonylamino)-3-(1H-imidazol-1-yl)propanamide hydrochloride]: the IC50 in test [1] turned out to be 0.41 µM; with rat platelet, 1.7 µM.
On to `O=C(O)Cc1ccc(NC(=O)C(Cn2ccnc2)NS(=O)(=O)c2ccc(F)cc2)cc1` (racemic) [Example 103, (RS)-N-(4-(carboxymethyl)phenyl)-2-(4-fluorobenzenesulfonylamino)-3-(1H-imidazol-1-yl)propanamide], for which the IC50 in test [1] worked out at 1.9 µM; in the test on rat platelet, 1.7 µM.
For the compound `O=C(O)Cc1ccc(NC(=O)C(Cn2ccnc2)NS(=O)(=O)c2ccc(Br)cc2)cc1` (racemic) [Example 104, (RS)-2-(4-bromobenzenesulfonylamino)-N-(4-(carboxymethyl)phenyl)-3-(1H-imidazol-1-yl)propanamide], the IC50 in test [1] was determined as 0.18 µM; in the test on rat platelet it was 1.7 µM.
`O=C(O)Cc1ccc(NC(=O)C(COc2cccnc2)NS(=O)(=O)c2ccc(Cl)cc2)cc1` (racemic) [Example 116, (RS)-N-(4-(carboxymethyl)phenyl)-2-(4-chlorobenzenesulfonylamino)-3-(pyridin-3-yloxy)propanamide hydrochloride]: the IC50 in test [1] worked out at 0.5 µM; in the test with rat platelet, 0.95 µM.
The corresponding values for `O=C(O)Cc1ccc(NC(=O)C(COc2cccnc2)NS(=O)(=O)c2ccc(F)cc2)cc1` (racemic) [Example 123, (RS)-N-(4-(carboxymethyl)phenyl)-2-(4-fluorobenzenesulfonylamino)-3-(pyridin-3-yloxy)propanamide] are 2 µM and 0.31 µM.
For `O=C(O)Cc1ccc(NC(=O)C(COc2cccnc2)NS(=O)(=O)c2ccc(Br)cc2)cc1` (racemic) [Example 124, (RS)-2-(4-bromobenzenesulfonylamino)-N-(4-(carboxymethyl)phenyl)-3-(pyridin-3-yloxy)propanamide], in that order: 0.13 µM and 0.31 µM.
On to `O=C(O)Cc1ccc(NC(=O)C(COc2ccccc2)NS(=O)(=O)c2ccc(Cl)cc2)cc1` (racemic) [Example 129, (RS)-N-(4-(carboxymethyl)phenyl)-2-(4-chlorobenzenesulfonylamino)-3-phenoxypropanamide], for which the values for the IC50 (in test [1]; in the test on rat platelet) were 0.72 µM and 0.54 µM, respectively.
In the case of `O=C(O)Cc1ccc(NC(=O)C(COc2ccc(Cl)cc2)NS(=O)(=O)c2ccc(Cl)cc2)cc1` (racemic) [Example 130, (RS)-N-(4-(carboxymethyl)phenyl)-2-(4-chlorobenzenesulfonylamino)-3-(4-chlorophenoxy)propanamide], the values for the IC50 (in test [1]; with rat platelet) were 0.16 µM and 1.7 µM, respectively.
Regarding `O=C(O)Cc1ccc(NC(=O)C(COc2cccc(Cl)c2)NS(=O)(=O)c2ccc(Cl)cc2)cc1` (racemic) [Example 131, (RS)-N-(4-(carboxymethyl)phenyl)-2-(4-chlorobenzenesulfonylamino)-3-(3-chlorophenoxy)propanamide], the figures for the IC50 (in test [1]; in the test on rat platelet) were 0.047 µM and 1.7 µM, respectively.
On to `O=C(O)Cc1ccc(NC(=O)C(COc2ccccc2Cl)NS(=O)(=O)c2ccc(Cl)cc2)cc1` (racemic) [Example 132, (RS)-N-(4-(carboxymethyl)phenyl)-2-(4-chlorobenzenesulfonylamino)-3-(2-chlorophenoxy)propanamide], for which the 50% inhibitory concentration (IC50) in test [1] stood at 0.023 µM; with rat platelet it was 1.7 µM.
For `O=C(O)Cc1ccc(NC(=O)C(COc2ccccc2)NS(=O)(=O)c2ccc(F)cc2)cc1` (racemic) [Example 136, (RS)-N-(4-(carboxymethyl)phenyl)-2-(4-fluorobenzenesulfonylamino)-3-phenoxypropanamide], in that order: 0.15 µM and 0.55 µM.
For `O=C(O)Cc1ccc(NC(=O)C(COc2ccc(Cl)cc2)NS(=O)(=O)c2ccc(F)cc2)cc1` (racemic) [Example 137, (RS)-N-(4-(carboxymethyl)phenyl)-3-(4-chlorophenoxy)-2-(4-fluorobenzenesulfonylamino)propanamide], in that order: 0.1 µM and 1.7 µM.
For `O=C(O)Cc1ccc(NC(=O)C(COc2cccc(Cl)c2)NS(=O)(=O)c2ccc(F)cc2)cc1` (racemic) [Example 138, (RS)-N-(4-(carboxymethyl)phenyl)-3-(3-chlorophenoxy)-2-(4-fluorobenzenesulfonylamino)propanamide], in that order: 0.1 µM and 0.53 µM.
Consider `O=C(O)Cc1ccc(NC(=O)C(COc2ccccc2)NS(=O)(=O)c2ccc(Br)cc2)cc1` (racemic) [Example 142, (RS)-2-(4-bromobenzenesulfonylamino)-N-(4-(carboxymethyl)phenyl)-3-phenoxypropanamide], for which the IC50 in test [1] was 0.024 µM; with rat platelet it was 0.53 µM.
In the case of `O=C(O)Cc1ccc(NC(=O)C(COc2ccc(Cl)cc2)NS(=O)(=O)c2ccc(Br)cc2)cc1` (racemic) [Example 143, (RS)-2-(4-bromobenzenesulfonylamino)-N-(4-(carboxymethyl)phenyl)-3-(4-chlorophenoxy) propanamide], the IC50 was 0.037 µM in test [1] and 1.7 µM in the test with rat platelet.
In the case of `O=C(O)Cc1ccc(NC(=O)C(COc2cccc(Cl)c2)NS(=O)(=O)c2ccc(Br)cc2)cc1` (racemic) [Example 144, (RS)-2-(4-bromobenzenesulfonylamino)-N-(4-(carboxymethyl)phenyl)-3-(3-chlorophenoxy) propanamide], the IC50 is 0.051 µM in test [1] and 0.53 µM in the test with rat platelet.
`O=C(O)Cc1ccc(NC(=O)C(COc2ccccc2)NS(=O)(=O)c2ccc(I)cc2)cc1` (racemic) [Example 149, (RS)-N-(4-(carboxymethyl)phenyl)-2-(4-iodobenzenesulfonylamino)-3-phenoxypropanamide]: the IC50 came out at 0.017 µM in test [1] and 0.17 µM in the test on rat platelet.
The corresponding values for `O=C(O)Cc1ccc(NC(=O)C(COc2ccc(Cl)cc2)NS(=O)(=O)c2ccc(I)cc2)cc1` (racemic) [Example 150, (RS)-N-(4-(carboxymethyl)phenyl)-3-(4-chlorophenoxy)-2-(4-iodobenzenesulfonylamino)propanamide] are 0.019 µM and 5.4 µM.

Source of the values: patent publication US5650428A, “Arylsulfonamide derivative and pharmaceutical compositions and use thereof” (NKK Corporation, priority 1993, dated 1997).
